# Data from PMC9781217, “Discovery of Novel and Selective G-Protein Coupled Receptor 120 (GPR120) Agonists for the Treatment of Type 2 Diabetes Mellitus” (Molecules, 2022).
# “Also recorded” adds a separate entry of the source. Read-outs that look alike come from different tables or passages of the source.
# Key:
# human GPR120 (hGPR120) = target: T1, human GPR120 (hGPR120) (Homo sapiens, UniProt Q5NUL3); experiment: Calcium flux assay in hGPR120-transfected CHO cells; conditions: for Selectivity: hGPR120 over hGPR40
# T1 sequence (Q5NUL3 1-361): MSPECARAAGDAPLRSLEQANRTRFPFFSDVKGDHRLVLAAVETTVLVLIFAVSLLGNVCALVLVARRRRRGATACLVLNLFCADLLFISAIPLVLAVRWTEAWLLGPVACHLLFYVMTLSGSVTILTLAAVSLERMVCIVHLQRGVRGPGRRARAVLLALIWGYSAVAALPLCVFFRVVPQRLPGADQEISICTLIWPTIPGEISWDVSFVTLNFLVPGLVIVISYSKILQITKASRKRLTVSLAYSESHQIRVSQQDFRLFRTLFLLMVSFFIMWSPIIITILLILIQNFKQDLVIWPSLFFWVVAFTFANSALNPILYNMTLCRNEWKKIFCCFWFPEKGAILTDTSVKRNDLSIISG
# Procedure: (§1) A calcium flux assay was performed to assess the agonist activity of the test compounds against the hGPR120 (mGPR120) and hGPR40 (mGPR40) receptors. […] The medium in the wells was gently discarded, and the wells were washed with Hank’s balanced salt solution (HBSS; 100 μL per well). […] The cells were then washed thrice in HBSS and allowed to equilibrate for 10 min before conducting the assay. Test compounds dissolved in dimethyl sulfoxide were diluted in HBSS at various concentrations and added to Fluo-4 AM-containing cells, and intracellular Ca^2+ concentrations were measured using FlexStation3 Molecular Devices. The EC50 value of each compound was calculated using GraphPad Prism software (version 5.0; GraphPad Software, San Diego, CA, USA).
# GPR40 = system: GPR40; parameters: method as in ref 15-26 = [15]; PMID 22519963; doi:10.1021/jm300215x; 15. Shimpukade B. Hudson B.D. Hovgaard C.K. Milligan G. Ulven T. Discovery of a potent and selective GPR120 agonist J. Med. Chem. 2012 55 4511 4515 10.1021/jm300215x 22519963 || [16]; PMID 24881566; doi:10.1016/j.bmcl.2014.05.012; 16. Sparks S.M. Chen G. Collins J.L. Danger D. Dock S.T. Jayawickreme C. Jenkinson S. Laudeman C. Leesnitzer M.A. Liang X. Identification of diarylsulfonamides as agonists of the free fatty acid recep || [17]; PMID 27570890; doi:10.1021/acs.jmedchem.6b00685; 17. Azevedo C.M. Watterson K.R. Wargent E.T. Hansen S.V. Hudson B.D. Kepczynska M.A. Dunlop J. Shimpukade B. Christiansen E. Milligan G. Non-Acidic Free Fatty Acid Receptor 4 Agonists with Antidiabeti || [18]; PMID 27815121; doi:10.1016/j.bmcl.2016.10.054; 18. Lombardo M. Bender K. London C. Kirkland M. Mane J. Pachanski M. Geissler W. Cummings J. Habulihaz B. Akiyama T.E. Discovery of benzofuran propanoic acid GPR120 agonists: From uHTS hit to mechanis || [19]; PMID 28105282; doi:10.1021/acsmedchemlett.6b00394; 19. Adams G.L. Velazquez F. Jayne C. Shah U. Miao S. Ashley E.R. Madeira M. Akiyama T.E. Di Salvo J. Suzuki T. Discovery of Chromane Propionic Acid Analogues as Selective Agonists of GPR120 with in Vi; conditions: Figure 1, representative GPR120 agonists; cited from earlier work
# human GPR40 (hGPR40) = human GPR40 (hGPR40) (Homo sapiens, UniProt O14842); experiment: Calcium flux assay in hGPR40-expressing CHO cells
# human GPR40 (hGPR40), sequence (O14842 whole entry): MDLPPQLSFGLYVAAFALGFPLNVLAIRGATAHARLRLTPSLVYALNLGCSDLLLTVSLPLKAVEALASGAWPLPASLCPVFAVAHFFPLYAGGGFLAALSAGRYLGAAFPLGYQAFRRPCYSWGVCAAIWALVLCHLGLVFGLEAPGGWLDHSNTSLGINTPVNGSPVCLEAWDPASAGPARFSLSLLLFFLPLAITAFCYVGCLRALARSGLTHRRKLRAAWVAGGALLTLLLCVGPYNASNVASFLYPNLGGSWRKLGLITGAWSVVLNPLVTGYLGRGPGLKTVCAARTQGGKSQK
# Procedure: as §1
# [1] = Pharmacokinetic analysis in C57BL/6 mice; assay type: in vivo; conditions: C57BL/6 mice
# Procedure: The pharmacokinetic profiles of 10k and 14d were obtained from C57BL/6 mice. […] The pharmacokinetic profiles traces were shown in the Supplementary Materials (Figure S1, see Supporting Materials).
# Plasma was collected and precipitated using two volumes of acetonitrile containing an internal standard. This was followed by centrifugation at 15.680 g for 10 min after vortexing for 5 min. The supernatant was diluted with acetonitrile and 10 µL of the supernatant was analyzed by Waters LC-PDA-MS/MS to determine plasma drug levels. Pharmacokinetic parameters were determined using mean data from four mice at each time point. Statistical analysis of the data was performed using the DAS 2.1.1 statistical software program (BioVoice, Shanghai, China).
# [2] = read-out: hGPR120 (EC50), calcium flux, hGPR120 CHO cells, mean of three determinations
# [3] = read-out: hGPR40 (EC50), calcium flux, hGPR40 CHO cells, mean of three determinations
EC50 (human GPR120 (hGPR120)),melting point,Selectivity (human GPR120 (hGPR120)),EC50 (human GPR40 (hGPR40)),Molecule,other results
218 nM,120 to 122 °C,,,"Cc1ccc(-c2ccc(F)cc2OCc2ccc(OCCC(=O)O)cc2)cc1 [Compound 10b, 3-(4-(((4-fluoro-4′-methyl-[1,1′-biphenyl]-2-yl)oxy)methyl)phenoxy)propanoic acid]",
,,,,O=C(O)CC1CCC2(CC1)CCN(c1cc(OC(F)(F)F)ccc1Cl)CC2 [Compound 2],EC50 (GPR40): > 10 µM
92.4 nM,164 to 166 °C,824.7,76.2 µM,"Cc1ccc(-c2ccc(F)cc2OCc2ccc(OCC(=O)O)cc2)cc1 [Compound 10a, 2-(4-(((4-fluoro-4′-methyl-[1,1′-biphenyl]-2-yl)oxy)methyl)phenoxy)acetic acid]",
96.8 nM,,,94.7 µM,"Cc1ccc(-c2ccc(F)cc2OCc2ccc(OCCCCC(=O)O)c(F)c2)cc1 [Compound 10l, 5-(2-fluoro-4-(((4-fluoro-4′-methyl-[1,1′-biphenyl]-2-yl)oxy)methyl)phenoxy)pentanoic acid]",
268 nM,125 to 127 °C,,,"Cc1ccc(-c2ccc(F)cc2OCc2ccc(OCCC(=O)O)c(C)c2)cc1 [Compound 10f, 3-(4-(((4-fluoro-4′-methyl-[1,1′-biphenyl]-2-yl)oxy)methyl)-2-methylphenoxy)propanoic acid]",
206 nM,,,,"Cc1ccc(-c2ccc(F)cc2OCc2ccc(OCCCCC(=O)O)c(C)c2)cc1 [Compound 10h, 5-(4-(((4-fluoro-4′-methyl-[1,1′-biphenyl]-2-yl)oxy)methyl)-2-methylphenoxy)pentanoic acid]",
168 nM,94 to 96 °C,,,"O=C(O)CCCOc1ccc(COc2cc(F)ccc2-c2ccccc2F)cc1F [Compound 14c, 4-(4-(((2′,4-difluoro-[1,1′-biphenyl]-2-yl)oxy)methyl)-2-fluorophenoxy)butanoic acid]",
380 nM,,,,"Cc1ccc(-c2ccc(F)cc2OCc2ccc(OCCCC(=O)O)c(C)c2)cc1 [Compound 10g, 4-(4-(((4-fluoro-4′-methyl-[1,1′-biphenyl]-2-yl)oxy)methyl)-2-methylphenoxy)butanoic acid]",
57.6 nM,130 to 132 °C,1289.9,74.3 µM,"Cc1ccc(-c2ccc(F)cc2OCc2ccc(OCCCC(=O)O)c(F)c2)cc1 [Compound 10k, 4-(2-fluoro-4-(((4-fluoro-4′-methyl-[1,1′-biphenyl]-2-yl)oxy)methyl)phenoxy)butanoic acid]","metabolic stability in vivo ([1]; pharmacokinetics, in words): higher metabolic stability than TUG-891; also recorded: excellent metabolic stability; Tmax ([1]; male, mouse, plasma, po, 10 mg/kg gavage): 30 min; Cmax ([1]; male, mouse, plasma, po, 10 mg/kg gavage, 0.5% MC, mean ± SD of four mice): 2370 ± 335 ng/mL; AUC ([1]; male, mouse, plasma, po, 10 mg/kg gavage, mean ± SD of four mice): 4250 ± 577 ng·h/mL; half-life ([1]; male, mouse, plasma, po, 10 mg/kg gavage, mean ± SD of four mice, read-out: t1/2 (converted)): 66 ± 18 min"
90.4 nM,83 to 85 °C,757.7,68.5 µM,"Cc1ccccc1-c1ccc(F)cc1OCc1ccc(OCCCC(=O)O)c(F)c1 [Compound 14a, 4-(2-fluoro-4-(((4-fluoro-2′-methyl-[1,1′-biphenyl]-2-yl)oxy)methyl)phenoxy)butanoic acid]",
138 nM,128 to 130 °C,1019.5,141 µM,"Cc1ccc(-c2ccc(F)cc2OCc2ccc(OCC(=O)O)c(C)c2)cc1 [Compound 10e, 2-(4-(((4-fluoro-4′-methyl-[1,1′-biphenyl]-2-yl)oxy)methyl)-2-methylphenoxy)acetic acid]",
313 nM,92 to 94 °C,,,"Cc1ccc(-c2ccc(F)cc2OCc2ccc(OCCCC(=O)O)c(F)c2)c(F)c1 [Compound 14n, 4-(4-(((2′,4-difluoro-4′-methyl-[1,1′-biphenyl]-2-yl)oxy)methyl)-2-fluorophenoxy)butanoic acid]",
129 nM,106 to 108 °C,875.6,113 µM,"Cc1ccc(-c2ccc(F)cc2OCc2ccc(OCCCC(=O)O)cc2)cc1 [Compound 10c, 4-(4-(((4-fluoro-4′-methyl-[1,1′-biphenyl]-2-yl)oxy)methyl)phenoxy)butanoic acid]",
82.5 nM,,,93.2 µM,"Cc1cccc(-c2ccc(F)cc2OCc2ccc(OCCCC(=O)O)c(F)c2)c1 [Compound 14b, 4-(2-fluoro-4-(((4-fluoro-3′-methyl-[1,1′-biphenyl]-2-yl)oxy)methyl)phenoxy)butanoic acid]",
159 nM,,600.0,95.1 µM,Cc1ccc(-c2ccc(F)cc2OCc2ccc(OCCCC(=O)O)c(F)c2)c(C)c1 [Compound 14i],
77.2 nM,90 to 92 °C,1129.5,87.2 µM,"Cc1ccc(-c2ccc(F)cc2OCc2ccc(OCC(=O)O)c(F)c2)cc1 [Compound 10i, 2-(2-fluoro-4-(((4-fluoro-4′-methyl-[1,1′-biphenyl]-2-yl)oxy)methyl)phenoxy)acetic acid]",
260 nM,103 to 105 °C,,,"COc1ccc(-c2ccc(F)cc2OCc2ccc(OCCCC(=O)O)c(F)c2)cc1 [Compound 14e, 4-(2-fluoro-4-(((4-fluoro-4′-methoxy-[1,1′-biphenyl]-2-yl)oxy)methyl)phenoxy)butanoic acid]",
187 nM,105 to 107 °C,419.6,78.6 µM,"Cc1ccc(-c2ccc(F)cc2OCc2ccc(OCCCC(=O)O)c(F)c2)c(Cl)c1 [Compound 14m, 4-(4-(((2′-chloro-4-fluoro-4′-methyl-[1,1′-biphenyl]-2-yl)oxy)methyl)-2-fluorophenoxy)butanoic acid]",
,,,,"4-(2-fluoro-4-(((4-fluoro-3′,5′-dimethyl-[1,1′-biphenyl]-2-yl)oxy)methyl)phenoxy)butanoic acid [Compound 14h]",EC50 (human GPR120 (hGPR120); [2]): 422 nM
103 nM,124 to 126 °C,1391.5,144 µM,"Cc1ccc(-c2ccc(F)cc2OCc2ccc(OCCCCC(=O)O)cc2)cc1 [Compound 10d, 5-(4-(((4-fluoro-4′-methyl-[1,1′-biphenyl]-2-yl)oxy)methyl)phenoxy)pentanoic acid]",
112 nM,,,85.5 µM,"Cc1ccc(-c2ccc(F)cc2OCc2ccc(OCCC(=O)O)c(F)c2)cc1 [Compound 10j, 3-(2-fluoro-4-(((4-fluoro-4′-methyl-[1,1′-biphenyl]-2-yl)oxy)methyl)phenoxy)propanoic acid]",

Molecule,EC50 (human GPR120 (hGPR120)),melting point,Selectivity (human GPR120 (hGPR120)),EC50 (human GPR40 (hGPR40)),other results
"4-(4-(((2′,4-difluoro-4′-methoxy-[1,1′-biphenyl]-2-yl)oxy)methyl)-2-fluorophenoxy)butanoic acid [Compound 14l]",,,665.2,,EC50 (human GPR120 (hGPR120); [2]): 136 nM; EC50 (human GPR40 (hGPR40); [3]): 90.8 µM
"4-(2-fluoro-4-(((4-fluoro-2′,4′-dimethyl-[1,1′-biphenyl]-2-yl)oxy)methyl)phenoxy)butanoic acid [Compound 14f]",,,604.0,,EC50 (human GPR120 (hGPR120); [2]): 170 nM; EC50 (human GPR40 (hGPR40); [3]): 103 µM
